Data published in ChEMBL document CHEMBL1201862, “PubChem BioAssay data set” (2004).
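Exposure lasted 48 hours, with cells grown in 96-well plates and compounds tested at five concentrations. GI50 = concentration required for 50% inhibition of growth.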 Activity calls are given as the source filed them. No stated cut-off is given here; in the data, active = GI50 up to about 1.1 µM and inactive = higher.

Legend:
Assay in all cases: NCI-60 cell line screen, 48 h
MDA-N = tested on: MDA-N
HCT-116 = tested on: HCT-116
CCRF-CEM = tested on: CCRF-CEM
HCC 2998 = tested on: HCC 2998
SF-268 = tested on: SF-268
LOX IMVI = tested on: LOX IMVI
SK-MEL-2 = tested on: SK-MEL-2
NCI-H226 = tested on: NCI-H226
Malme-3M = tested on: Malme-3M
OVCAR-8 = tested on: OVCAR-8
EKVX = tested on: EKVX
COLO 205 = tested on: COLO 205
PC-3 = tested on: PC-3
HOP-62 = tested on: HOP-62
BT-549 = tested on: BT-549
K562 = tested on: K562
MCF7 = tested on: MCF7
OVCAR-4 = tested on: OVCAR-4
SNB-19 = tested on: SNB-19
NCI-H522 = tested on: NCI-H522

CCN(CC)Cc1c(/C=C\c2cc(OC)c(OC)c(OC)c2)ccc(OC)c1O
GI50 (MDA-N): 0.387 µM (active)
GI50 (HCT-116): 3.33 µM (inactive)
GI50 (CCRF-CEM): 6.53 µM (inactive)
GI50 (HCC 2998): 3.73 µM (inactive)
GI50 (SF-268): 5.21 µM (inactive)
GI50 (LOX IMVI): 6.24 µM (inactive)
GI50 (SK-MEL-2): 6.62 µM (inactive)
GI50 (NCI-H226): 3.67 µM (inactive)
GI50 (Malme-3M): 3.23 µM (inactive)
GI50 (OVCAR-8): 4.1 µM (inactive)
GI50 (EKVX): 6.1 µM (inactive)
GI50 (COLO 205): 2.45 µM (inactive)
GI50 (PC-3): 1.8 µM (inactive)
GI50 (HOP-62): 5.02 µM (inactive)
GI50 (BT-549): 6.01 µM (inactive)
GI50 (K562): 3.27 µM (inactive)
GI50 (MCF7): 3.17 µM (inactive)
GI50 (OVCAR-4): 12.3 µM (inactive)
GI50 (SNB-19): 10.3 µM (inactive)
GI50 (NCI-H522): 1.87 µM (inactive)

CCOC(=O)NC(Nc1ccc(C)cc1)(C(F)(F)F)C(F)(F)F
GI50 (MDA-N): > 100 µM (inactive)
GI50 (HCT-116): > 100 µM (inactive)
GI50 (CCRF-CEM): > 100 µM (inactive)
GI50 (HCC 2998): > 100 µM (inactive)
GI50 (SF-268): > 100 µM (inactive)
GI50 (LOX IMVI): > 100 µM (inactive)
GI50 (NCI-H226): > 100 µM (inactive)
GI50 (Malme-3M): > 100 µM (inactive)
GI50 (OVCAR-8): > 100 µM (inactive)
GI50 (COLO 205): > 100 µM (inactive)
GI50 (PC-3): > 100 µM (inactive)
GI50 (HOP-62): > 100 µM (inactive)
GI50 (BT-549): > 100 µM (inactive)
GI50 (K562): > 100 µM (inactive)
GI50 (MCF7): > 100 µM (inactive)
GI50 (OVCAR-4): > 100 µM (inactive)
GI50 (SNB-19): > 100 µM (inactive)
GI50 (NCI-H522): > 100 µM (inactive)

Cc1ccccc1S(=O)(=O)OC1NS(=O)(=O)c2ccccc21 (stereo not given)
GI50 (MDA-N): > 100 µM (inactive)
GI50 (HCT-116): > 100 µM (inactive)
GI50 (HCC 2998): > 100 µM (inactive)
GI50 (SF-268): > 100 µM (inactive)
GI50 (LOX IMVI): > 100 µM (inactive)
GI50 (SK-MEL-2): > 100 µM (inactive)
GI50 (Malme-3M): > 100 µM (inactive)
GI50 (OVCAR-8): > 100 µM (inactive)
GI50 (EKVX): > 100 µM (inactive)
GI50 (COLO 205): > 100 µM (inactive)
GI50 (PC-3): > 100 µM (inactive)
GI50 (HOP-62): > 100 µM (inactive)
GI50 (BT-549): > 100 µM (inactive)
GI50 (K562): > 100 µM (inactive)
GI50 (MCF7): > 100 µM (inactive)
GI50 (OVCAR-4): > 100 µM (inactive)
GI50 (SNB-19): > 100 µM (inactive)
GI50 (NCI-H522): > 100 µM (inactive)

CC(=O)OCCOCn1cc(C=O)c2ccccc21
GI50 (MDA-N): > 100 µM (inactive)
GI50 (HCT-116): > 100 µM (inactive)
GI50 (CCRF-CEM): > 100 µM (inactive)
GI50 (HCC 2998): > 100 µM (inactive)
GI50 (SF-268): > 100 µM (inactive)
GI50 (LOX IMVI): > 100 µM (inactive)
GI50 (SK-MEL-2): > 100 µM (inactive)
GI50 (Malme-3M): > 100 µM (inactive)
GI50 (OVCAR-8): > 100 µM (inactive)
GI50 (EKVX): > 100 µM (inactive)
GI50 (COLO 205): > 100 µM (inactive)
GI50 (PC-3): > 100 µM (inactive)
GI50 (HOP-62): > 100 µM (inactive)
GI50 (BT-549): > 100 µM (inactive)
GI50 (K562): > 100 µM (inactive)
GI50 (MCF7): > 100 µM (inactive)
GI50 (SNB-19): > 100 µM (inactive)
GI50 (NCI-H522): 49.3 µM (inactive)

NNC(=O)CCCCCCCC(=O)O
GI50 (MDA-N): > 100 µM (inactive)
GI50 (HCT-116): > 100 µM (inactive)
GI50 (CCRF-CEM): > 100 µM (inactive)
GI50 (HCC 2998): > 100 µM (inactive)
GI50 (LOX IMVI): > 100 µM (inactive)
GI50 (SK-MEL-2): > 100 µM (inactive)
GI50 (NCI-H226): > 100 µM (inactive)
GI50 (Malme-3M): > 100 µM (inactive)
GI50 (OVCAR-8): 10.4 µM (inactive)
GI50 (EKVX): > 100 µM (inactive)
GI50 (COLO 205): > 100 µM (inactive)
GI50 (PC-3): > 100 µM (inactive)
GI50 (HOP-62): > 100 µM (inactive)
GI50 (BT-549): > 100 µM (inactive)
GI50 (K562): > 100 µM (inactive)
GI50 (MCF7): > 100 µM (inactive)
GI50 (OVCAR-4): > 100 µM (inactive)
GI50 (SNB-19): > 100 µM (inactive)
GI50 (NCI-H522): > 100 µM (inactive)

N#Cc1nc(-c2ccccn2)oc1N
GI50 (MDA-N): > 100 µM (inactive)
GI50 (HCT-116): > 100 µM (inactive)
GI50 (CCRF-CEM): > 100 µM (inactive)
GI50 (HCC 2998): > 100 µM (inactive)
GI50 (SF-268): > 100 µM (inactive)
GI50 (LOX IMVI): > 100 µM (inactive)
GI50 (SK-MEL-2): > 100 µM (inactive)
GI50 (NCI-H226): > 100 µM (inactive)
GI50 (Malme-3M): > 100 µM (inactive)
GI50 (EKVX): > 100 µM (inactive)
GI50 (COLO 205): > 100 µM (inactive)
GI50 (PC-3): > 100 µM (inactive)
GI50 (HOP-62): > 100 µM (inactive)
GI50 (BT-549): > 100 µM (inactive)
GI50 (K562): > 100 µM (inactive)
GI50 (MCF7): > 100 µM (inactive)
GI50 (OVCAR-4): > 100 µM (inactive)
GI50 (SNB-19): > 100 µM (inactive)
GI50 (NCI-H522): > 100 µM (inactive)

CC(=O)OCC1OC(SC2=NC(=O)/C(=C/c3ccccc3)S2)C(OC(C)=O)C(OC(C)=O)C1OC(C)=O (stereo not given)
GI50 (MDA-N): 26.8 µM (inactive)
GI50 (HCT-116): 29.4 µM (inactive)
GI50 (CCRF-CEM): 28.4 µM (inactive)
GI50 (HCC 2998): 28.8 µM (inactive)
GI50 (SF-268): 20.1 µM (inactive)
GI50 (LOX IMVI): 22.4 µM (inactive)
GI50 (SK-MEL-2): 80.4 µM (inactive)
GI50 (NCI-H226): 33.8 µM (inactive)
GI50 (Malme-3M): 23.7 µM (inactive)
GI50 (OVCAR-8): 14.6 µM (inactive)
GI50 (EKVX): 21.2 µM (inactive)
GI50 (COLO 205): 45.6 µM (inactive)
GI50 (PC-3): 40.1 µM (inactive)
GI50 (HOP-62): 38.5 µM (inactive)
GI50 (BT-549): 28.4 µM (inactive)
GI50 (MCF7): 18.9 µM (inactive)
GI50 (OVCAR-4): 32 µM (inactive)
GI50 (SNB-19): 35.1 µM (inactive)
GI50 (NCI-H522): 32.9 µM (inactive)

NC1CC2NC3CCCCC3NC2CC1N (stereo not given)
GI50 (MDA-N): 43.8 µM (inactive)
GI50 (HCT-116): 24.1 µM (inactive)
GI50 (CCRF-CEM): 22.5 µM (inactive)
GI50 (HCC 2998): 62.5 µM (inactive)
GI50 (SF-268): 50.8 µM (inactive)
GI50 (LOX IMVI): 31.6 µM (inactive)
GI50 (SK-MEL-2): 50.1 µM (inactive)
GI50 (NCI-H226): 48.9 µM (inactive)
GI50 (Malme-3M): 46.6 µM (inactive)
GI50 (OVCAR-8): 27.4 µM (inactive)
GI50 (EKVX): 25.4 µM (inactive)
GI50 (COLO 205): 42.5 µM (inactive)
GI50 (PC-3): 50.9 µM (inactive)
GI50 (BT-549): > 100 µM (inactive)
GI50 (K562): 31.8 µM (inactive)
GI50 (MCF7): 0.776 µM (active)
GI50 (SNB-19): 36.2 µM (inactive)
GI50 (NCI-H522): 12.6 µM (inactive)

CNC(=O)CCCNC(=O)CCCC(=O)N(C)C
GI50 (MDA-N): > 100 µM (inactive)
GI50 (HCT-116): > 100 µM (inactive)
GI50 (CCRF-CEM): > 100 µM (inactive)
GI50 (HCC 2998): > 100 µM (inactive)
GI50 (SF-268): > 100 µM (inactive)
GI50 (LOX IMVI): > 100 µM (inactive)
GI50 (SK-MEL-2): > 100 µM (inactive)
GI50 (NCI-H226): > 100 µM (inactive)
GI50 (Malme-3M): > 100 µM (inactive)
GI50 (OVCAR-8): > 100 µM (inactive)
GI50 (EKVX): > 100 µM (inactive)
GI50 (COLO 205): > 100 µM (inactive)
GI50 (PC-3): > 100 µM (inactive)
GI50 (HOP-62): > 100 µM (inactive)
GI50 (BT-549): > 100 µM (inactive)
GI50 (K562): > 100 µM (inactive)
GI50 (MCF7): > 100 µM (inactive)
GI50 (SNB-19): > 100 µM (inactive)
GI50 (NCI-H522): > 100 µM (inactive)

Cc1c(C#N)c(N)[nH]c(=S)c1C#N
GI50 (MDA-N): > 100 µM (inactive)
GI50 (HCT-116): > 100 µM (inactive)
GI50 (CCRF-CEM): > 100 µM (inactive)
GI50 (HCC 2998): > 100 µM (inactive)
GI50 (SF-268): > 100 µM (inactive)
GI50 (LOX IMVI): > 100 µM (inactive)
GI50 (SK-MEL-2): > 100 µM (inactive)
GI50 (NCI-H226): > 100 µM (inactive)
GI50 (Malme-3M): > 100 µM (inactive)
GI50 (OVCAR-8): > 100 µM (inactive)
GI50 (EKVX): > 100 µM (inactive)
GI50 (PC-3): > 100 µM (inactive)
GI50 (HOP-62): > 100 µM (inactive)
GI50 (BT-549): > 100 µM (inactive)
GI50 (K562): > 100 µM (inactive)
GI50 (MCF7): > 100 µM (inactive)
GI50 (SNB-19): > 100 µM (inactive)
GI50 (NCI-H522): > 100 µM (inactive)

CCOC(=O)CCC(NC(=O)c1ccc(Oc2nc3c(N)cc(C(F)(F)F)cc3nc2-c2ccccc2)cc1)C(=O)OCC (stereo not given)
GI50 (MDA-N): 63.1 µM (inactive)
GI50 (HCT-116): 2.14 µM (inactive)
GI50 (CCRF-CEM): > 100 µM (inactive)
GI50 (HCC 2998): 67.8 µM (inactive)
GI50 (SF-268): 13.8 µM (inactive)
GI50 (LOX IMVI): > 27.1 µM (inactive)
GI50 (NCI-H226): 2.76 µM (inactive)
GI50 (Malme-3M): 12.4 µM (inactive)
GI50 (OVCAR-8): 1.09 µM (active)
GI50 (EKVX): 47.1 µM (inactive)
GI50 (COLO 205): > 100 µM (inactive)
GI50 (PC-3): 8.32 µM (inactive)
GI50 (HOP-62): 6.98 µM (inactive)
GI50 (BT-549): > 50.6 µM (inactive)
GI50 (K562): > 100 µM (inactive)
GI50 (MCF7): 37.1 µM (inactive)
GI50 (OVCAR-4): 19.2 µM (inactive)
GI50 (SNB-19): 30.5 µM (inactive)
GI50 (NCI-H522): 5.96 µM (inactive)
